One compound from US20090209556A1, “SOLUBLE GUANYLATE CYCLASE ACTIVATORS” (priority 2007, published 2009) can be followed below.

This assay addresses T1, Human recombinant sGC enzyme (Homo sapiens, UniProt Q02108+Q02153).
T1 construct: purchased Axxora, LLC (San Diego, Calif.)
T1 sequence (Q02153 1-619): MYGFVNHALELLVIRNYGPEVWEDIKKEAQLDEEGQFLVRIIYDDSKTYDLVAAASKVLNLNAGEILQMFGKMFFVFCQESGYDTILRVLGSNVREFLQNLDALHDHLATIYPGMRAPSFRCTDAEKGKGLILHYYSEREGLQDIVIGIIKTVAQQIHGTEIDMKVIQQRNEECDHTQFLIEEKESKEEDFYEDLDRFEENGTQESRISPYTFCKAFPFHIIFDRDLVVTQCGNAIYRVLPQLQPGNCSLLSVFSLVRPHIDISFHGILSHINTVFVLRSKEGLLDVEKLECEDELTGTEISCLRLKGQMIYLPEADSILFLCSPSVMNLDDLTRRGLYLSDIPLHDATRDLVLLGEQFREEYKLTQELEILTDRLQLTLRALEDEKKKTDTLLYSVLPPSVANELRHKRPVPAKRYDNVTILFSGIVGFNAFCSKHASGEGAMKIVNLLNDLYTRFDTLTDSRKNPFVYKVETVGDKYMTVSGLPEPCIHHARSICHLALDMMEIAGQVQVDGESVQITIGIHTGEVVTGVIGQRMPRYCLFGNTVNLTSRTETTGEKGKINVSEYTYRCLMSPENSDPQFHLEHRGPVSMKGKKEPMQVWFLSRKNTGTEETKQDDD
T1 sequence (Q02108 1-690): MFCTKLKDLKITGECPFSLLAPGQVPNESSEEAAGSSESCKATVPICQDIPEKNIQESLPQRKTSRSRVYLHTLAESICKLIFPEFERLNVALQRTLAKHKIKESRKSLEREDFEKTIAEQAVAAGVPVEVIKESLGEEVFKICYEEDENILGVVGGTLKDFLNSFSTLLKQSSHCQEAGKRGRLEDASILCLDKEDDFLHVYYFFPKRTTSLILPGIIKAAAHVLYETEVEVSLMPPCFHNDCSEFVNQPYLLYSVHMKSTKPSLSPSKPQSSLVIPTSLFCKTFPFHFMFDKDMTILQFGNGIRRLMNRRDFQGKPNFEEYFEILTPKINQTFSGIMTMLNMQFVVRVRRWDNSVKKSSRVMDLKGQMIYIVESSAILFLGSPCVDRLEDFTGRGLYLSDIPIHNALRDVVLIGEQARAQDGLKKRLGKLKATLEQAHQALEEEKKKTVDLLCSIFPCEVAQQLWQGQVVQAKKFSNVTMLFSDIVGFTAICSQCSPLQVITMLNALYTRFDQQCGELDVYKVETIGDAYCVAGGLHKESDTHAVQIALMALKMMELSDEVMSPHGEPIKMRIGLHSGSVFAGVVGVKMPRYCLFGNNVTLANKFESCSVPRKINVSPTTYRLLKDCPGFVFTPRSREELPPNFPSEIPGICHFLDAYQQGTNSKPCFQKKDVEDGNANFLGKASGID
As to the kind of experiment: Measurement of soluble guanylyl cyclase activation (enzyme-based), PCASA cell-free enzymatic assay, cGMP by HTRF. The class given is biochemical. The note with it: purified sGC 0.1 ng, substrate GTP, 1 hr at 37° C. The method, then:
Measurement of Soluble Guanylyl Cyclase ([…]) Activation (Enzyme-Based)
Activities of test compounds against purified sGC were evaluated in PCASA assay which is a cell-free enzymatic assay.
Human recombinant sGC enzyme with greater than 95% purity was obtained from Axxora, LLC (San Diego, Calif.). Compounds were incubated with 0.1 ng of sGC enzyme in presence of its substrate GTP for 1 hr at 37° C. At the end of the incubation period, the reaction was stopped and the amount of cGMP generated was measured by an HTRF-based assay (CisBio, 62GN2PEC), which detects the displacement of a fluorophore-labeled cGMP from its specific antibody.
Inflection point, maximum % of activation, and EC50 were derived based on the plot of compound concentration vs % activation.

As to `O=C(O)c1cnn(-c2cccc(-c3cc(Cl)ccc3OCc3ccc([C@H]4CC[C@H](C(F)(F)F)CC4)cc3)n2)c1C(F)(F)F` [Example 9], the EC50 was 1.7 nM.
